Test results published in publication PMC8267647, “Metallacarborane Derivatives Effective against Pseudomonas aeruginosa and Yersinia enterocolitica” (International Journal of Molecular Sciences, 2021).
Like-named read-outs stand apart in the source and are kept apart here.

Tests used:
[1] = tested on: Pseudomonas aeruginosa strain PCM 2058; assay: Bacterial growth inhibition IC50 in LB medium; assay type: cell-based; conditions: 8-h time point, Luria-Bertani medium, 37 °C; ± SEM; read-out: IC50 for growth inhibition, Pa 2058
Method: (§1) Bacterial growth inhibition was measured on a Spark 10 M (Tecan, AT) microplate reader as described previously (Swietnicki et al., 2019). Briefly, a bacterial culture in LB medium grown at 37 °C overnight was diluted 1:100 with a fresh medium and aliquoted into a 96-well plate at 98 μL/well with a multichannel pipette. A 2 μL aliquot of compound serially diluted in DMSO was added in triplicates, the plate was covered with a lid or a transparent plate sealer, and incubated at 37 °C for up to 24 h. Bacterial growth was monitored by following an A600 reading every hour. After the experiment, the data were stored in Excel format, transferred into KaleidaGraph software (Synergy Software, Reading, PA, USA) and the A600 was plotted versus log [Concentration]. The IC50 values were determined by fitting the readings at the 8 h time point to a sigmoidal model of inhibition. Each experiment was repeated at least 3 times to verify the values.

[2] = tested on: Pseudomonas aeruginosa strain PCM 499; assay: Bacterial growth inhibition IC50 in LB medium; assay type: cell-based; conditions: 8-h time point, Luria-Bertani medium, 37 °C; ± SEM; read-out: IC50 for growth inhibition, Pa499
Method: as §1

[3] = tested on: Yersinia enterocolitica strain PCM 2080; assay: Bacterial growth inhibition IC50 in LB medium; assay type: cell-based; conditions: 8-h time point, Luria-Bertani medium, 37 °C; ± SEM; read-out: IC50 for growth inhibition, Ye 2080
Method: as §1

[4] = tested on: Yersinia enterocolitica strain PCM 2090; assay: Bacterial growth inhibition IC50 in LB medium; assay type: cell-based; conditions: 8-h time point, Luria-Bertani medium, 37 °C; ± SEM; read-out: IC50 for growth inhibition, Ye 2090
Method: as §1

[5] = tested on: Y. enterocolitica strain PCM 2080 grown in the presence of 200 μM compounds; assay: Cross-resistance generation: IC50 on compound-evolved bacteria; assay type: cell-based, Yersinia enterocolitica; conditions: read-out: Resistance (IC50 value against the selected compound)
Method: as §1
The evolution was performed in parallel using blood agar and LB agar plates prepared in-house. Briefly, a 200 μL aliquot of 200 μM compound in PBS was added to a fresh agar plate, spread on the surface, and left to dry in a BSC cabinet for approximately 30 min. After that time, a single colony from an overnight culture on a plate was spread on the surface before the plate was covered with a lid and left at 37 °C to incubate overnight. The procedure was repeated at least nine times for each plate. After the last step, a single colony was selected from a plate and added to a 3 mL aliquot of LB medium. […] Dual selection on different plates was necessary in cases where the growth inhibition was too strong to obtain single colonies on LB agar plates. […] Until then, the colonies were supplied from bacteria grown on the blood agar plates.

MCF 10A = assay: Antiproliferative SRB assay; assay type: cell-based, human; conditions: SRB method, 72 h of treatment; highest concentration 100 μM; read-out: IC50 72h (95% CI) MCF 10A
Description: (§2) Rockville, Maryland, USA).

BALB/3T3 = assay: Antiproliferative SRB assay; assay type: cell-based, mouse; conditions: SRB method, 72 h of treatment; highest concentration 100 μM; read-out: IC50 72h (95% CI) BALB/3T3
Description: as §2

[6] = tested on: drug-resistant Y. enterocolitica strain 2080; assay: SEM of drug-resistant bacteria; assay type: cell-based, Yersinia enterocolitica; conditions: for bacterial growth seen under SEM: bacteria passaged at least nine times with 200 μM compound; for mechanism of biological activity: from SEM, 200 μM
Method: Scanning electron microscopy of Y. enterocolitica was performed at a low accelerating voltage of the primary beam without any coating or heavy-metal contrasting of the samples, as described in previous work. Bacteria were applied onto a polished silicon crystal chip and allowed to adhere for 30 min. The samples were fixed with 2.5% glutaraldehyde in 0.1 M cacodylate buffer for 30 min at 4 °C, then washed in water and dehydrated in a series of methanol solutions (25%-50%-75%-100%-100%) in one-hour steps at 4 °C. Samples underwent critical point drying with methanol exchanged for liquid CO2 in an automatized approach, (CPD300 AUTO, Leica Microsystems, Vienna, Austria) and imaged with a cross-beam scanning electron microscope equipped with a Schottky field-emission cathode (Auriga 60, Carl Zeiss, Oberkochen, Germany) at 0.8 kV accelerating voltage. Thus, the imaging was performed within a mode referred to as the low-voltage, field-emission scanning electron microscopy (LV-FESEM) of nonlabeled, critical point-dried samples.
Figure 3 Scanning electron microscopy of drug-resistant Y. enterocolitica strain 2080. […] After exposure to compound 1 for nine passages, there were only fragments of organic debris visible (B). In the presence of compounds 7 and 3, there were multiple bacteria observed with apparently normal morphology. Scale bars: (A) and (B) 500 nm, (C) and (E) 2.5 μm, (D) and (F) 1 μm.

MRSA = conditions: after 20 passages; cited from earlier work
mammalian cell culture = conditions: cited from earlier work
[7] = tested on: zebrafish (Danio rerio) larvae; assay: Danio rerio toxicity assay (modified Fish Embryo Toxicity test); assay type: in vivo; conditions: for mortality rate: day 5; for visible morphological deformities: concentrations up to 10 μM; for mortality (share of the population): 10 μM, day 5 post-exposure
Method: To determine acute toxicity of examined compounds modified Fish Embryo Toxicity (FET) test was performed of zebrafish (Danio rerio) according to OECD Test Guideline 236. Briefly, the collected embryos were transferred to a Petri dish with E3 medium (5 mM NaCl, 0.33 mM MgCl2, 0.33 mM CaCl2, 0.17 mM KCl; pH 7.2) and then placed in 24-well plates, 5 embryos per well, 10 per group. Stock solutions of boron cluster compounds were prepared in DMSO. In these experiments, three series of solutions with different concentrations were employed, which were freshly prepared by dissolving stock solutions in the E3 solution each time directly before addition to the wells. The solutions were changed once daily and the embryos were maintained in the incubator at 28.5 °C. Zebrafish embryos were evaluated for developmental abnormalities and viability at 24 h intervals for up to 5 days using a stereomicroscope (Zeiss Axio Vert, ZEISS, Germany). Morphological deformities of the heart, dorsal string, and tail development were measured and compared with the control embryos. Image analysis was performed to determine the percentage of dead and malformed embryos over time using Zeiss software. The experiment was performed in triplicate. Fish were taken from own fish facility of The Centre of Experimental Medicine, Medical University of Lublin. For the experiment AB OMD strain was used.
Figure 4 Toxicity of selected compounds on zebrafish (Danio rerio) larvae. Fish larvae were grown in 6-well plates in the presence of compounds for up to 5 days and the morphological deformities were analyzed from images as described under Materials and Methods. Representative photographs are shown. S, scoliosis; TA, tail autophagy; PE, pericardial edema.
Figure 5 Mortality rates of selected compounds on zebrafish (Danio rerio) larvae. The population size (n = 10) from Figure 4 was followed up to day 5 as described under Materials and Methods. Representative graphs are shown.

[8] = strain PCM 2080 grown with 200 μM compound 1 for at least nine generations
[9] = strain PCM 2080 grown with 200 μM compound 3 for at least nine generations
[10] = strain PCM 2080 grown with 200 μM compound 7 for at least nine generations
[11] = 2 μM, up to day 5 post-exposure
[12] = concentrations lower than 20 μM except 2 μM

| Substance | IC50 [1] [µM] | IC50 [2] [µM] | IC50 [3] [µM] | IC50 [4] [µM] | IC50 (MCF 10A) [µM] | IC50 (BALB/3T3) [µM] | other results |
| --- | --- | --- | --- | --- | --- | --- | --- |
| [8-NH2-iso-Bu-8′-I-3,3′-Co(1,2-C2B9H10)2] [Compound 7] | 24.7 ± 8 | 58.7 ± 20 | 1.8 ± 0.8 | 6.2 ± 0.7 | 0.115 | 0.024 | IC50 [5, 8]: > 37 µM; IC50 [5, 9]: > 100 µM; IC50 [5, 10]: > 100 µM; bacterial growth seen under SEM [6]: did not inhibit the growth of bacteria; mechanism of biological activity [6]: blockage of bacterial cell division |
| 8-ethoxy-8′-iodo derivative of cobalt bis(1,2-dicarbollide) [Compound K121] | – | – | – | – | – | – | generation of resistance (MRSA): not able to generate resistance |
| Cs[8-O-iso-Bu-8′-I-3,3′-Co(1,2-C2B9H10)2] [Compound 3] | 59 ± 30 | 16.9 ± 8 | 4.2 ± 1.8 | 3.4 ± 1 | 52.5 | 10.2 | IC50 [5, 8]: 4.7 ± 1 µM; IC50 [5, 9]: 10.4 ± 3 µM; IC50 [5, 10]: 3.7 ± 1.2 µM; bacterial growth seen under SEM [6]: did not inhibit the growth of bacteria; mechanism of biological activity [6]: blockage of bacterial cell division |
| [8-NH2-CHEt2-8′-I-3,3′-Co(1,2-C2B9H10)2] [Compound 8] | – | – | – | – | 0.045 | 0.023 | – |
| Cs[8,8′-I2-3,3′-Co(1,2-C2B9H10)2] [Compound 1] | 28.3 ± 6 | 11.4 ± 1 | 4.8 ± 3 | 2.5 ± 1.4 | 59.8 | 17 | change of ED50 versus COSAN (mammalian cell culture; mammalian cells): decreases the ED50 values approximately threefold; IC50 [5, 8]: 2.6 ± 0.2 µM; IC50 [5, 9]: 4 ± 1 µM; IC50 [5, 10]: 3.1 ± 1 µM; mortality [7, 11]: none of the animals died; mortality ([7]; 20 μM, day 4): lethal to all larvae; mortality rate [7, 12]: 20%; visible morphological deformities [7]: induced visible morphological deformities; bacterial growth seen under SEM [6]: generally inhibited bacterial growth; mechanism of biological activity [6]: most likely being bactericidal |
| [8-NH2-n-Bu-8′-I-3,3′-Co(1,2-C2B9H10)2] [Compound 6] | – | – | – | – | – | 0.29 | – |
| Cs[8-O-cyclo-C6H11-8′-I-3,3′-Co(1,2-C2B9H10)2] [Compound 5] | 52.1 ± 15 | 52.1 ± 10 | 7.5 ± 4 | 3.3 ± 1 | 46.3 | 11.7 | mortality (share of the population) [7]: ≤ 20%; morphological deformities ([7]; 20 μM): deformities of dorsal string; mortality rate ([7]; 20 μM): 20%; visible morphological deformities [7]: did not induce visible deformities |
| Cs[8-O-CHEt2-8′-I-3,3′-Co(1,2-C2B9H10)2] [Compound 4] | 72 ± 30 | 52.9 ± 20 | 6.7 ± 2.3 | 5.3 ± 1 | 50 | 11.3 | mortality [7, 11]: none of the animals died; mortality (share of the population) [7]: ≤ 20%; mortality ([7]; 20 μM, day 4): lethal to all larvae; mortality rate [7, 12]: 20%; visible morphological deformities [7]: did not induce visible deformities |
| [8-NH2-cyclo-C6H11-8′-I-3,3′-Co(1,2-C2B9H10)2] [Compound 9] | – | – | – | – | 0.082 | 0.067 | – |
| Cs[8-O-n-Bu-8′-I-3,3′-Co(1,2-C2B9H10)2] [Compound 2] | 28 ± 8 | 12.1 ± 4 | 4.3 ± 1.5 | 2.4 ± 0.7 | 16.1 | 3.7 | – |
| 3,3′-commo-bis[closo-1,2-dicarba-3-cobaltadodecaborate](1-) [COSAN, reference compound] | – | – | – | – | – | – | concentration that reversibly blocks cell growth (mammalian cell culture): above 100 µM |
